This is an account of results in patent publication US9815851B2, “Pyrrolo carboxamides as modulators of orphan nuclear receptor RAR-related orphan receptor-gamma (RORγ, NR1F3) activity and for the treatment of chronic inflammatory and autoimmune diseases” (PHENEX PHARMACEUTICALS AG, priority 2011, dated 2017).

For test [1], the target named is T1, RORγ ligand binding domain (LBD) (Homo sapiens, UniProt P51449).
T1 construct: made in house; host or cells: E. coli BL-21 (BL3), vector pDEST15
T1 sequence (P51449 269-508 limits assumed): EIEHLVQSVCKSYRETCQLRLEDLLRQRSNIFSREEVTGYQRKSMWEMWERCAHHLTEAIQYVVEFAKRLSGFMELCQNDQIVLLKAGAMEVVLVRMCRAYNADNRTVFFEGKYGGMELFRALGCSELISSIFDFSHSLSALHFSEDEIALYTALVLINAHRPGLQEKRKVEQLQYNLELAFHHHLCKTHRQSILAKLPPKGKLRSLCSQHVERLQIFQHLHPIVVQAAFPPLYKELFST
In words: TR-FRET Activity Assay (ligand sensing, RORγ-LBD / coactivator peptide interaction, LANCE). The test is classed as biochemical.

The next test addresses T2, RORγ (UniProt P51449).
T2 sequence (P51449 1-518): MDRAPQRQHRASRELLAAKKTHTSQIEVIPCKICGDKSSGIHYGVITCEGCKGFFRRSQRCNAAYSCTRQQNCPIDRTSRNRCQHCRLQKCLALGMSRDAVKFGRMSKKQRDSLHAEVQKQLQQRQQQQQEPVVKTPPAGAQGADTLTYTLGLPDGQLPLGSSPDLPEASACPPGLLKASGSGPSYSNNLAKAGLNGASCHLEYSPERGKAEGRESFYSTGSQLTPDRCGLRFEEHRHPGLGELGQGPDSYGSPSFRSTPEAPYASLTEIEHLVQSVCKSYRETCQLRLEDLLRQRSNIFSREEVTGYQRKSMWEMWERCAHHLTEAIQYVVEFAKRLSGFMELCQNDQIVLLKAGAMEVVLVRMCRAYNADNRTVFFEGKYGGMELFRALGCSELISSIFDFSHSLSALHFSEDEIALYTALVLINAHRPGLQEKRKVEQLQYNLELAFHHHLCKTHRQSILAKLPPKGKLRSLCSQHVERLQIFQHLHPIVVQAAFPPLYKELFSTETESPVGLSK
In words: RORγ Gal4 Reporter Gene Assay in 293T cells (firefly and renilla luciferase). The test is classed as cell-based, human. (A reporter such as luciferase makes a cellular process visible.)

Where [2] appears, read: first value of the cell FRET/FF/REN, TR-FRET activity assay, read-out: pIC50 (FRET) (converted).
Where [3] appears, read: second value of the cell, Gal4 reporter gene assay in 293T cells, firefly luciferase.
Setting [4] is: third value of the cell, Gal4 reporter gene assay in 293T cells, renilla normalised luciferase.

Read-outs that look alike come from different tables or passages of the source. A value given as a limit tells only on which side of the number the result lay.

As for `Cc1c(C(=O)N[C@H]2C[C@H](C(=O)O)C2)cc(-c2cc(C(=O)NC(C)(C)C(F)(F)F)cc(C3(C)CC3)c2)n1CC1CCCCC1` [17/360], the IC50 in test [1] (setting [2]) was 6310 nM. Also, the “pIC50 (FF)” value against RORγ (setting [3]) is 7.3. Moreover, the “pIC50 (REN)” value at RORγ (setting [4]) is recorded as 7.4.
Consider `Cc1c(C(=O)N[C@H]2C[C@H](C(=O)O)C2)cc(-c2ccc(S(=O)(=O)NC(C)(C)C)c3sccc23)n1CC1CCCCC1` [17/184], for which the IC50 in test [1] (setting [2]) is 794 nM. The “pIC50 (FF)” value on RORγ (setting [3]) came out at 6.9. Besides, the “pIC50 (REN)” value on RORγ (setting [4]) stood at 7.1.
In the same order, the values of `Cc1c(C(=O)NC2CC23CCOCC3)cc(-c2ccc(S(=O)(=O)NC(C)(C)C)c(C(F)(F)F)c2)n1CC1CCCCC1` (stereo not drawn) [17/210] are 158 nM, 7.9 and 8.1.
The matching figures for `Cc1c(C(=O)N[C@H]2CC[C@H](C(=O)O)CC2)cc(-c2cc(C(C)(C)C)c3c(c2)C2(CCO3)CC2)n1CC1CCCCC1` [17/57]: 794 nM, 7.4 and 7.5.
In the same order, the values of `CNC(=O)C(C)(C)CCNC(=O)c1cc(-c2ccc(S(=O)(=O)NC(C)(C)C)c(C(F)(F)F)c2)n(CC2CCCCC2)c1C` [17/136] are 794 nM, 6.6 and 6.7.
With `Cc1c(C(=O)NC2CCOCC2)cc(-c2cc(Cl)cc(C3(C)CC3)c2)n1CC1CCCCC1` [17/296], in test [1] (setting [2]), the IC50 was 251 nM. Further, the “pIC50 (FF)” value on RORγ (setting [3]) worked out at 7.0. The “pIC50 (REN)” value against RORγ (setting [4]) is given as 7.1.
In turn, `Cc1c(C(=O)NCC2(O)CCOCC2)cc(-c2cc(C(=O)NC(C)(C)C)cc(C3(C)CC3)c2)n1CC1CCCCC1` [17/341] gave an IC50 in test [1] of 794 nM. For the same compound, on RORγ, the “pIC50 (FF)” value is 6.1/7.4/7.6 and the “pIC50 (REN)” value is 6.1/7.4/7.6.
As to `Cc1c(C(=O)NCCN2CCN(C)CC2)cc(-c2cc(C(C)(C)C)cc(C3(C)CC3)c2)n1CC1CCCCC1` [17/346], the IC50 in test [1] was 5010 nM. In addition, at RORγ, the “pIC50 (FF)” value was 5.3/<4.7/<4.7 and the “pIC50 (REN)” value is given as 5.3/<4.7/<4.7.
Take `Cc1c(C(=O)NCCCO)cc(-c2cc(C(C)(C)C)cc(C(C)(C)C)c2)n1CC1CCCCC1` [1/65]: in test [1] (setting [2]), the IC50 is 398 nM. For the same compound, at RORγ (setting [3]), the “pIC50 (FF)” value was 6.6. The “pIC50 (REN)” value against RORγ (setting [4]) is 6.6.
On to `Cc1c(C(=O)NCC2(C)COC2)cc(-c2cc(C(C)(C)C)c3c(c2)C2(CCO3)CC2)n1CC1CCCCC1` [1/101], for which the IC50 in test [1] (setting [2]) is 251 nM. Also, the “pIC50 (FF)” value against RORγ (setting [3]) was 7.2. Moreover, the “pIC50 (REN)” value at RORγ (setting [4]) was determined as 7.2.
Take `Cc1c(C(=O)NCC2(S(C)(=O)=O)CCOCC2)cc(-c2cc(C(C)(C)C)c3c(c2)C2(CCO3)CC2)n1CC1CCCCC1` [17/11]: the IC50 in test [1] is 200 nM. Also, at RORγ, the “pIC50 (FF)” value is 6.7/7.2/7.2 and the “pIC50 (REN)” value is given as 6.7/7.2/7.2.
As for `Cc1c(C(=O)N[C@H]2C[C@H](C(=O)O)C2)cc(-c2cc(C(C)(C)C)nc(C(C)(C)C)n2)n1CC1CCCCC1` [17/354], in test [1] (setting [2]), the IC50 was 1000 nM. For the same compound, the “pIC50 (FF)” value against RORγ (setting [3]) turned out to be 7.0. Further, the “pIC50 (REN)” value on RORγ (setting [4]) is recorded as 7.0.
`Cc1c(C(=O)NC2CCOCC2)cc(-c2ccc(S(=O)(=O)NC(C)(C)C)c(C(F)(F)F)c2)n1CC1(C)CCCC1` [17/176]: in test [1] (setting [2]), the IC50 is 251 nM. In addition, the “pIC50 (FF)” value against RORγ (setting [3]) came to 7.1. Moreover, at RORγ (setting [4]), the “pIC50 (REN)” value is on record as 7.0.
As for `Cc1c(C(=O)N2CCOC(C(=O)O)C2)cc(-c2ccc(S(=O)(=O)NC(C)(C)C)c(C(F)(F)F)c2)n1CC1CCCCC1` (stereo not drawn) [17/137], in test [1] (setting [2]), the IC50 was 501 nM. At RORγ (setting [3]), the “pIC50 (FF)” value is recorded as less than 4.7. The “pIC50 (REN)” value against RORγ (setting [4]) was less than 4.7.
`Cc1c(C(=O)NC2C[S+]([O-])C2)cc(-c2cc(C(C)C)c3c(c2)C(C)(C)N(C(C)C)S3(=O)=O)n1CC1CCCCC1` (stereo not drawn) [2/3]: in test [1] (setting [2]), the IC50 was 1580 nM. Moreover, at RORγ (setting [3]), the “pIC50 (FF)” value came out at 6.5. Also, the “pIC50 (REN)” value against RORγ (setting [4]) stood at 6.7.
Regarding `Cc1c(C(=O)NCCS(C)(=O)=O)cc(-c2cc(C(C)(C)C)cc(C(C)(C)C)c2)n1CC1CCCCC1` [1/1], in test [1] (setting [2]), the IC50 is 251 nM. Moreover, the “pIC50 (FF)” value against RORγ (setting [3]) is listed as 6.6. The “pIC50 (REN)” value on RORγ (setting [4]) was found to be 6.7.
For the compound `Cc1c(C(=O)NCC(=O)O)cc(-c2cc(C(C)(C)C)cc(C(C)(C)C)c2)n1CC1CCCCC1` [1/57], the IC50 in test [1] (setting [2]) is 2510 nM. Moreover, at RORγ (setting [3]), the “pIC50 (FF)” value is on record as 5.8. Further, at RORγ (setting [4]), the “pIC50 (REN)” value is recorded as 5.8.
In the case of `Cc1c(C(=O)NC2CCOCC2)cc(-c2ccc(S(=O)(=O)NC(C)(C)C)c(C(C)(C)C)c2)n1CC1CCC1` [17/213], the IC50 in test [1] is 631 nM. Besides, on RORγ, the “pIC50 (FF)” value is 6.2/7.1/7.2 and the “pIC50 (REN)” value is 6.2/7.1/7.2.
As to `Cc1c(C(=O)NC2CCOCC2)cc(-c2cc(C(F)(F)F)c3c(c2)C(C)(C)C(=O)N3C)n1CC1CCCCC1` [17/148], the IC50 in test [1] (setting [2]) was 794 nM. Besides, the “pIC50 (FF)” value against RORγ (setting [3]) came out at 7.0. In addition, on RORγ (setting [4]), the “pIC50 (REN)” value was 7.0.
Take `Cc1c(C(=O)NC[C@@H]2CCCO2)cc(-c2cc(C(C)(C)C)c3c(c2)C2(CCO3)CC2)n1CC1CCCCC1` [17/6]: in test [1] (setting [2]), the IC50 is 251 nM. Further, the “pIC50 (FF)” value against RORγ (setting [3]) was found to be 6.4. For the same compound, the “pIC50 (REN)” value against RORγ (setting [4]) is 6.5.
In the same order, the values of `Cc1c(C(=O)NC2COC2)cc(-c2cc(C(C)(C)C)cc(C(C)(C)C)c2)n1CCC1CCCC1` [1/116] are 126 nM, 6.9/6.9/6.9 and 6.9/6.9/6.9.
In the same order, the values of `Cc1c(C(=O)NC2COC2)cc(-c2ccc(C(=O)N(C)C(C)(C)C)c(C(C)(C)C)c2)n1CC1CCCCC1` [1/31] are 2000 nM, 6.4 and 6.4.
In the same order, the values of `Cc1c(C(=O)NC2CCOCC2)cc(-c2ccc(C(=O)NCC(F)(F)F)c(C(C)(C)C)c2)n1CC1CCCCC1` [6/2] are 3160 nM, 6.5 and 6.4.
On to `Cc1c(C(=O)NCC2(C(=O)O)CCOCC2)cc(-c2ccc(S(=O)(=O)NC(C)(C)C)c(C(F)(F)F)c2)n1CC1CCCCC1` [17/201], for which the IC50 in test [1] (setting [2]) was 794 nM. For the same compound, at RORγ (setting [3]), the “pIC50 (FF)” value was 5.7. Also, on RORγ (setting [4]), the “pIC50 (REN)” value is 5.7.
Turning to `Cc1c(C(=O)NC2COC2)cc(-c2cc(C(=O)NC(C)C)cc(C(F)(F)F)c2)n1CC1CCCCC1` [15/2], in test [1] (setting [2]), the IC50 is 1000 nM. For the same compound, the “pIC50 (FF)” value against RORγ (setting [3]) is given as 6.3. For the same compound, the “pIC50 (REN)” value at RORγ (setting [4]) stood at 6.3.
The compound `COC(C)(C)c1cc(C(=O)NC(C)(C)C)cc(-c2cc(C(=O)NC3CCOCC3)c(C)n2CC2CCCCC2)c1` [17/324] had an IC50 in test [1] of 3160 nM. In addition, on RORγ, the “pIC50 (FF)” value was 5.5/6.8/6.8 and the “pIC50 (REN)” value is 5.5/6.8/6.8.
`Cc1c(C(=O)NC2CCOCC2)cc(-c2ccc(S(=O)(=O)NC3(C)CC3)c(C(C)(C)C)c2)n1CC1CCCCC1` [17/227]: the IC50 in test [1] is 501 nM. At RORγ, the “pIC50 (FF)” value is 6.3/8.1/8.1 and the “pIC50 (REN)” value was 6.3/8.1/8.1.
In test [1], `Cc1c(C(=O)NCCN2CCOCC2)cc(-c2cc(C(C)(C)C)cc(C(C)(C)C)c2)n1CC1CCCCC1` [1/70] showed an IC50 of 631 nM. For the same compound, on RORγ, the “pIC50 (FF)” value is 6.2/6.6/6.6 and the “pIC50 (REN)” value was 6.2/6.6/6.6.
As to `Cc1c(C(=O)NC2COC2)cc(-c2cc(C(F)(F)F)cc(C3(C)CC3)c2)n1CC1CCCCC1` [1/79], the IC50 in test [1] (setting [2]) is 398 nM. Besides, the “pIC50 (FF)” value at RORγ (setting [3]) came out at 7.2. For the same compound, on RORγ (setting [4]), the “pIC50 (REN)” value turned out to be 7.2.
